Test results taken from patent US5354748A, “Oral antibacterial compositions and method for the improvement of gastrointestinal absorption of penem or carbapenem antibiotics” (Suntory Limited, priority 1991, dated 1994).
Like-named read-outs stand apart in the source and are kept apart here.

Assay: Plasma concentration and urinary excretion of penem in dogs, capsules with glutathione (Example 7)
Format: in vivo
Conditions: dog; for AUC at 4 h / Cmax: plasma; for AUC at 4 h / Cmax / dose excreted at 24 h: po, 75 mg, oral capsule 75 mg (titer); for dose excreted at 24 h: urine, read-out: Excretion into urine

C[C@@H](O)[C@H]1C(=O)N2C(C(=O)O)=C([C@H]3CCCO3)S[C@H]12 [sodium (1'R,2"R,5R,6S)-6-(1'-hydroxyethyl)-2-(2"-tetrahydrofuranyl)penem-3-carboxylate 2.5 hydrate]
Increase of AUC relative to single administration (oral, glutathione 1/110 of the penemcarboxylate): 1.2 times
AUC at 4 h (penem:glutathione molar ratio 11:1): 25400 ng·h/mL
Cmax (penem:glutathione molar ratio 11:1, read-out: Highest concentration in plasma): 18000 ng/mL
AUC at 4 h (penem:glutathione molar ratio 110:1): 21900 ng·h/mL
Cmax (penem:glutathione molar ratio 110:1, read-out: Highest concentration in plasma): 14700 ng/mL
dose excreted at 24 h (penem:glutathione molar ratio 11:1, up to 24 hours): 20.7%
dose excreted at 24 h (penem:glutathione molar ratio 110:1, up to 24 hours): 19.9%
